In publication PMC12126525, “Mechanism of ATP hydrolysis in the Hsp70 BiP nucleotide-binding domain” (Nature Communications, 2025):

Molecular target: BiP NBD (Homo sapiens, UniProt P11021)
Assay: Global kinetic fit (MCMC) of four NMR data sets (E1+E2, E1 only, E2 only, no recycling): functional cycle kinetic parameters
Type: biochemical
Set-up: His6 (N, cleaved yes); made in house; host or cells: E. coli BL21-(DE3)-Lemo, pET28a vector
Source text: It comprises 5 different states that are connected by […] reaction equations of first and second order. We consider ATP hydrolysis an irreversible reaction without backreaction. The other pathways are reversible dissociation/association reactions, arbitrarily labeled 1–5. The microscopic equations (elementary reactions) for these 11 reactions are given by:1 NBD^ATPkcat→NBD^ADP⋅Pi 2 NBD^ATPkoff1⇌kon1NBD^apo+ATP 3 NBD^ADPkoff2⇌kon2NBD^apo+ADP 4 NBD^Pikoff3⇌kon3NBD^apo+Pi 5 NBD^ADP⋅Pikoff4⇌kon4NBD^ADP+Pi 6 NBD^ADP⋅Pikoff5⇌kon5NBD^Pi+ADP With the forward and backward kinetic rate constants connected by thermodynamic equilibrium dissociation constants given by7 koffi/koni=KDifori=1,…,5 For each of the 5 states, a differential equation describing the conservation of mass can be derived:8 d/dtNBD^apo=+koff1NBD^ATP+koff2NBD^ADP+koff3NBD^Pi−kon1NBD^apoATP−kon2NBD^apoADP−kon3NBD^apoPi 9 d/dt[NBD^ATP]=+kon1NBD^apoATP−koff1NBD^ATP−kcatNBD^ATP 10 d/dtNBD^ADP⋅Pi=+kcatNBD^ATP+kon4NBD^ADPPi+kon5NBD^PiADP−koff4NBD^ADP⋅Pi−koff5NBD^ADP⋅Pi 11 d/dtNBD^ADP=+koff4NBD^ADP⋅Pi+kon2NBD^apoADP−koff2NBD^ADP−kon4NBD^ADPPi 12 d/dtNBD^Pi=+koff5NBD^ADP⋅Pi+kon3NBD^apoPi−koff3NBD^Pi−kon5NBD^PiADP Furthermore, we have the total amount13 NBD^apo+NBD^ATP+NBD^ADP+NBD^ADP⋅Pi+NBD^Pi=NBD0 These equations can be used for numerical fitting of steady-state and non-steady-state experimental data.
The experimental data of the BiP NBD in-cyclo experiments were fitted using standard reaction kinetics. Free variables were the kon and koff rates for the five reversible reaction and the catalytic rate constant (kcat) for the irreversible ATP hydrolysis step (See theory section). The initial values for kcat , koff2 , koff4 and koff5 were set to the value determined experimentally with in-cyclo experiment. The initial value for koff3 was taken from the EXSY experiment and the initial range for koff1 and KD1 were taken from the literature. […] The prior distributions were defined based on the average state occupancy resolved from the in-cyclo experiment: tNBD·ADP, tNBD, tNBD·ADP·Pi and tNBD·Pi. Numerical integration of the corresponding differential equations for the reaction scheme (described in Fig. 2a) was performed using a custom Python module (Kinetic).
To fully determine all kinetic parameters, the data fitting procedure was conducted as a global fit of four independent experimental datasets: (i) the in-cyclo experiment with ATP regeneration and phosphate removal, (ii) ATP regeneration only, (iii) single batch experiments starting from pure ATP with the phosphate removal system, and (iv) single batch experiments starting from pure ATP.
Fitting of the functional cycle kinetic parameters. a-d, Global fit of the experimental data presented in the manuscript E1 +E2 (a), E1 (b), E2 (c), no recycling system (d). Data points are shown as circles NBD·ADP (blue), NBD·ADP·PI (dark blue) and NBD·ATP (red) (left) and pyruvate (grey), glucose-1-P (lavender), ATP (red) and ADP (blue) (right). The fit of the data is shown as lines in the same color as the data points. Data points and standard deviation for three independent experiments. e, Numerical stability of the global fitting of the experimental data.

[1] = Supplementary Fig 10a, time 5 min
[2] = Supplementary Fig 10a, time 11 min
[3] = Supplementary Fig 10a, time 17 min
[4] = Supplementary Fig 10a, time 23 min
[5] = Supplementary Fig 10a, time 29 min
[6] = Supplementary Fig 10a, time 35 min
[7] = Supplementary Fig 10a, time 41 min
[8] = Supplementary Fig 10a, time 47 min
[9] = Supplementary Fig 10a, time 53 min
[10] = Supplementary Fig 10a, time 59 min
[11] = Supplementary Fig 10a, time 65 min
[12] = Supplementary Fig 10a, time 71 min
[13] = Supplementary Fig 10b, time 10 min
[14] = Supplementary Fig 10b, time 16 min
[15] = Supplementary Fig 10b, time 22 min
[16] = Supplementary Fig 10b, time 28 min
[17] = Supplementary Fig 10b, time 34 min
[18] = Supplementary Fig 10b, time 40 min
[19] = Supplementary Fig 10b, time 46 min
[20] = Supplementary Fig 10b, time 52 min
[21] = Supplementary Fig 10b, time 58 min
[22] = Supplementary Fig 10b, time 64 min
[23] = Supplementary Fig 10b, time 70 min

BiP NBD, sequence (P11021 19-406): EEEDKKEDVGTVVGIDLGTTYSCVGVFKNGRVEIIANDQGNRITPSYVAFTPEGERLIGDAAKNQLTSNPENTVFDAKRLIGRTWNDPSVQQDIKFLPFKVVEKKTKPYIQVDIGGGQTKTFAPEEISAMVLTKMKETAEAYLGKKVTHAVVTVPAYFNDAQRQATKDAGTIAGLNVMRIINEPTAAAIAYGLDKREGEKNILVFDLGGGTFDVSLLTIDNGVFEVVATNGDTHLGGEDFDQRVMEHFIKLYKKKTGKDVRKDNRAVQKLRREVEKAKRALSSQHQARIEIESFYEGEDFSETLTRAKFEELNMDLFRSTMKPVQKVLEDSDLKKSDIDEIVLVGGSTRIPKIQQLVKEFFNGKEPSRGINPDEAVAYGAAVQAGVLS

| species [1] [µM] | species [2] [µM] | species [3] [µM] | species [4] [µM] | species [5] [µM] | species [6] [µM] | species [7] [µM] | species [8] [µM] | species [9] [µM] | species [10] [µM] | species [11] [µM] | species [12] [µM] | species [13] [µM] | species [14] [µM] | species [15] [µM] | species [16] [µM] | species [17] [µM] | species [18] [µM] | species [19] [µM] | species [20] [µM] | further results | Structure (SMILES) |
| --- | --- | --- | --- | --- | --- | --- | --- | --- | --- | --- | --- | --- | --- | --- | --- | --- | --- | --- | --- | --- | --- |
| 1073 | 2085 | 2925 | 4009 | 4805 | 5531 | 6432 | 7245 | 8072 | 8987 | 9725 | 10723 | – | – | – | – | – | – | – | – | species (Supplementary Fig 10c, time 5 min): 690 µM; species (Supplementary Fig 10c, time 11 min): 1328 µM; species (Supplementary Fig 10c, time 17 min): 1777 µM; species (Supplementary Fig 10c, time 23 min): 2409 µM; species (Supplementary Fig 10c, time 29 min): 2838 µM; species (Supplementary Fig 10c, time 35 min): 3243 µM; species (Supplementary Fig 10c, time 41 min): 3518 µM; species (Supplementary Fig 10c, time 47 min): 3730 µM; species (Supplementary Fig 10c, time 53 min): 3950 µM | O=P(O)(O)O[C@H]1O[C@H](CO)[C@@H](O)[C@H](O)[C@H]1O [glucose-1-p] |
| 23927 | 22915 | 22075 | 20991 | 20195 | 19469 | 18568 | 17755 | 16928 | 16013 | 15275 | 14277 | 9179 | 8398 | 7745 | 7180 | 6616 | 6265 | 5793 | 5256 | species [21]: 4838 µM; species [22]: 4465 µM; species [23]: 3973 µM | C=C(OP(=O)(O)O)C(=O)O [PEP] |
| 841 | 1872 | 3013 | 4002 | 4950 | 5935 | 6850 | 7775 | 8621 | 9455 | 10281 | 11083 | 1011 | 1602 | 2255 | 2820 | 3384 | 3735 | 4207 | 4544 | species [21]: 4962 µM; species [22]: 5335 µM; species [23]: 5727 µM | CC(=O)C(=O)O [Pyruvate] |
